Literature values, collected in US20190223486A1, “CATECHIN ABSORPTION ENHANCER FOR ENHANCING CATECHIN ABSORPTION IN SMALL INTESTINAL EPITHELIAL CELLS” (AMOREPACIFIC CORPORATION, priority 2016, published 2019).

Conditions: in vivo, po

share of a catechin intake absorbed by the intestines: less than 2%
Substance: catechin
